Assay results published in patent US20200392192A1 (priority 2018, published 2020).
Like-named read-outs stand apart in the source and are kept apart here.

What was measured:
in vitro [1] = settings: human
in vitro [2] = test: in vitro
HUH7-ZikaPRVABC59 = test: microbe, parasite or virus in culture; type: cell-based; settings: Zika virus
HCV Replicon = test: microbe, parasite or virus in culture; type: cell-based; settings: Hepatitis C virus
in vitro [3] = settings: human; remark: listed apart in the source
CEM-SS/HIVRF = type: cell-based, HIV1
protein synthesis = settings: read-out: IC50 protein synthesis inhibition; cited from earlier work

CC(C)OC(=O)[C@H](C)N[P@](=O)(OC[C@H]1O[C@@H](n2ccc(=O)[nH]c2=O)[C@](C)(F)[C@@H]1O)Oc1ccccc1 [Sofosbuvir]
CC50 (in vitro [1]): > 10000 nM | CC50 (in vitro [2]): > 1000 nM | EC50 (HUH7-ZikaPRVABC59): 2090 nM | EC50 (HCV Replicon): 50 nM

Nc1ccn([C@@H]2CS[C@H](CO)O2)c(=O)n1 [3TC, Lamivudine]
CC50 (in vitro [3]): > 10000 nM

Cc1cn([C@H]2C[C@H](N=[N+]=[N-])[C@@H](CO)O2)c(=O)[nH]c1=O [AZT]
CC50 (CEM-SS): > 1000 nM | EC50 (CEM-SS/HIVRF): 0.8 nM

PAP1
increased toxicity to E. coli compared to PAPS1 (E. coli): > 10 fold | IC50 (protein synthesis): 0.29 nM
